Here are results for three compounds from patent US9289464B2, “Method for diagnosing and treating NIS-expressing carcinomas and metastases” (priority 2002, dated 2016).

Test [1] concerns breast cancer cell line MCF-7. In words: Iodide uptake assay (Na125I) in MCF-7 cells. In kind it is cell-based, human. As to the method: (§1) All the cell lines used herein were purchased from the Deutschen Sammlung von Mikroorganismen und Zelikulturen (DSMZ; Brunswick, Germany, DSMZ No.: MCF-7 (ACC 115)). MCF-7 cells were cultured in RPMI 1640 medium with 10% FCS (fetal calf serum) and addition of 1× nonessential amino acids, 0.01 mg/ml bovine insulin and 5% penicillin/streptomycin. The HeLa cells were cultured in RPMI 1640 medium. All the reagents for the cell culture were, unless indicated otherwise, purchased from Invitrogen, Karlsruhe, Germany. Cells were cultured in plates with 24 wells (24 Well Plates) for 24 h. The cells were then washed and subsequently the substances to be tested (ciglitazone, trans-retinoic acid with or without KClO4) were added in fresh medium. […] After the incubation, the cells were washed twice with ice-cold RPMI 1640 and lysed in 2% SDS-PAGE sample buffer (0.0625 M Tris-HCl, pH 6.8) with 1 U/μl Benzonase (Merck KgaA, Darmstadt, Germany). The ^125I uptake was measured in a gamma counter. An aliquot of each sample was employed to determine the protein concentration using the DC protein determination kit from Bio-Rad (Munich, Germany) in order thus to achieve standardization with different numbers of cells.

The next test concerns NIS mRNA. In words: NIS mRNA concentration in treated cells. In kind it is cell-based. Conditions: cells treated with tRA.
The subject of another test is HEK-293 cells. In words: Iodide uptake assay in HEK-293 cells (analogous experiment). The format is cell-based. Conditions: results not shown. As to the method:
Cells were cultured in plates with 24 wells (24 Well Plates) for 24 h. The cells were then washed and subsequently the substances to be tested (ciglitazone, trans-retinoic acid with or without KClO4) were added in fresh medium. […] After the incubation, the cells were washed twice with ice-cold RPMI 1640 and lysed in 2% SDS-PAGE sample buffer (0.0625 M Tris-HCl, pH 6.8) with 1 U/μl Benzonase (Merck KgaA, Darmstadt, Germany). The ^125I uptake was measured in a gamma counter. An aliquot of each sample was employed to determine the protein concentration using the DC protein determination kit from Bio-Rad (Munich, Germany) in order thus to achieve standardization with different numbers of cells.

The subject of test [2] is non-small-cell lung cancer cell line H460. Particulars: cited from earlier work.
For test [3], the system named is choriocarcinoma cell line JEG-3. Conditions: cited from earlier work.
Test [4] has as its system cervical carcinoma cell line HeLa. In words: Iodide uptake assay (Na125I) in HeLa cells. The format is cell-based. Conditions: 1 μM tRA with or without 5 μM CIG, 48 h. As to the method: as §1
For test [5], the system named is non-small-cell lung cancer cell line A549. Particulars: cited from earlier work.
For test [6], the system named is prostate cancer cell line LNCaP. Particulars: cited from earlier work.
Another test concerns the target T1, NIS (Homo sapiens, UniProt Q92911).
T1 construct: NIS gene expression is increased synergistically by treatment of CIG in combination with retinoic acid in the breast cancer cell line MCF-7; endogenous in cells; host or cells: MCF-7 (DSMZ ACC 115)
T1 sequence (Q92911 1-643): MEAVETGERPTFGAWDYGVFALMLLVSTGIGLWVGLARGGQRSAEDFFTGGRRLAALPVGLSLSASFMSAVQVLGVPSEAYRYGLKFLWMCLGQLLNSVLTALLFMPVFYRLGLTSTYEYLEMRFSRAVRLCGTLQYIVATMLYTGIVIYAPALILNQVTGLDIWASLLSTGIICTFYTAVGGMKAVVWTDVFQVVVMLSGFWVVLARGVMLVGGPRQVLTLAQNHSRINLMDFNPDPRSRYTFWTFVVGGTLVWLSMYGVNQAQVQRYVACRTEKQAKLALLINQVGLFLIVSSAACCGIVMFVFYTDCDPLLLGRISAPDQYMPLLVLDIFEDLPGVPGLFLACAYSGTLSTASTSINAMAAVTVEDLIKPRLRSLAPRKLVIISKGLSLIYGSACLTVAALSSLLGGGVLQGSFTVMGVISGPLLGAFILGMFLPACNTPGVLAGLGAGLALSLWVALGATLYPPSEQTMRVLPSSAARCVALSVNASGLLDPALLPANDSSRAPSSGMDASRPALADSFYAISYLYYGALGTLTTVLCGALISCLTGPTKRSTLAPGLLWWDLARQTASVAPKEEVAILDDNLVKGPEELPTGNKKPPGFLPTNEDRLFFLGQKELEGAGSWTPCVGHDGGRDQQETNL
In words: Blocking experiments: iodide uptake in presence of KClO4. The format is cell-based. Conditions: 30 mM KClO4; MCF-7 treated with tRA with or without CIG. As to the method: Cells were cultured in plates with 24 wells (24 Well Plates) for 24 h. The cells were then washed and subsequently the substances to be tested (ciglitazone, trans-retinoic acid with or without KClO4) were added in fresh medium. For the iodide uptake, the cells were first washed twice in prewarmed RPMI 1640 medium without FCS, and then incubated in 1 ml of RPMI 1640 without FCS which comprised 0.1 μCi/ml Na^125I (specific activity: 10 mCi/mmol, Amersham Biosciences, Freiburg, Germany) and 10 μM NaI/well for 1 h.
After the incubation, the cells were washed twice with ice-cold RPMI 1640 and lysed in 2% SDS-PAGE sample buffer (0.0625 M Tris-HCl, pH 6.8) with 1 U/μl Benzonase (Merck KgaA, Darmstadt, Germany). The ^125I uptake was measured in a gamma counter. An aliquot of each sample was employed to determine the protein concentration using the DC protein determination kit from Bio-Rad (Munich, Germany) in order thus to achieve standardization with different numbers of cells.
In order to test the specificity of NIS-mediated iodide uptake, the experiments described in the previous exemplary embodiment were also carried out in the presence of 30 mM KClO4, the strongest specific NIS inhibitor.

For the compound `CC1=C(/C=C/C(C)=C/C=C/C(C)=C/C(=O)O)C(C)(C)CCC1` [tRA, trans-retinoic acid], the “time at which maximum iodide uptake was reached” value in test [1] (1 μM tRA) was 48 h. Also, in the test with NIS mRNA, the “concentration of NIS mRNA” value is listed as “distinctly increased”. Also, the “induction of iodide uptake (in words)” value in the test with HEK-293 cells was “same results”; in [4], “no induction of iodide uptake”. In addition, the “induction of iodide uptake” value in test [2], in test [3], in test [5] and in test [6] was “does not induce iodide uptake” each time.

In the case of `CC1(COc2ccc(CC3SC(=O)NC3=O)cc2)CCCCC1` (stereo not shown) [CIG, ciglitazone], in [1] (1 μM tRA and/or 5 μM CIG), the “effect on iodide uptake (in words)” value was “no effect”.

As for `[K+].[O-][Cl+3]([O-])([O-])[O-]` [KClO4], the “effect on iodide uptake of breast cancer cells (NIS blocking)” value on NIS is on record as “inhibited”.
